Measurements reported in patent US9956204B2, “Composition for exterminating scuticociliates in fish including mebendazole” (NATIONAL INSTITUTE OF FISHERIES SCIENCE, priority 2016, dated 2018).

Assays:
scuticociliates [1] = assay: Clinical trial: cumulative mortality of olive flounder artificially infected with scuticociliates; format: in vivo; details: observed for 15 days
Protocol: For the artificial infection, 1×10^5 of scuticociliates per fish were intraperitoneally injected into a total of […] juvenile olive flounder (average 10 cm). The experiment was performed by dividing them into 5 groups of every 20 fish per each experiment.

scuticociliates [2] = assay: Scuticociliates extermination effect of candidate substances in MEM medium; format: cell-based; details: MEM medium
Protocol: CHSE-214 cell line into which scuticociliates were inoculated was cultured in advance. The CHSE-214 cell line was cultured in an incubator using an MEM medium at 22° C. Scuticociliates inoculated into the cell line proliferated for 3 days by which the number reaches to be capable of analyzing in vitro anti-scuticociliates effect. Scuticociliates that feed on the cell line and sufficiently grow were mixed with the candidate substance and the activity of scuticociliates was measured.
In order to analyze the antiparasitic activity of the above 19 types of candidate substances of scuticociliates extermination drugs, scuticociliates were cultured for 3 days, and 100 μl (1×10^5) was dispensed into each well of 96 wells. The candidate substances were diluted by each concentration and the final volume was dispensed into 100 μl. Thereafter, the two were mixed and finally made into 200 μl.

lysozyme = details: in vivo
Protocol: (§1) Mebendazole was orally or immersing administered at a concentration of 100 or 500 mg/kg BW (ppm) to the olive flounder once for 1 hour. After 6 hours, 1 day, 2 days, 7 days and 14 days, a blood chemistry analysis and an immunological analysis were conducted.
The immunological analysis was conducted to measure the lysozyme activity of the kidney, spleen and serum (Lange et al., 2001, Parry, R. M. Chandau, R. C. & Shahani, R. M. (1965). A rapid and sensitive assay of muramidase. Proceedings of the Society for Experimental Biology Medicine 119, 384-386). In brief explanation, 100 μl of the prepared plasma was diluted with PBS (pH 6.2) in 2-fold to 4 steps on a 96-well plate and 100 μg of Micrococcus lysodekiticus (Sigma, USA) liquid diluted with PBS (pH 6.2) to 0.4 mg/ml was added to each well. After that, absorbance at 590 nm was measured every 0, 15, 30, 45 and 60 minutes. One unit of lysozyme activity was converted into the amount of a sample that decreases the absorbance 0.001/min.

[3] = within 24~48 hours; cited from earlier work
scuticociliates [4] = assay: Scuticociliates extermination effect of candidate substances in seawater medium; format: cell-based; details: seawater medium; for Survival or Death of scuticociliates (activity and shape, microscope): 4 hour
Protocol: For this, scuticociliates were cultured in CHSE-214 cell line (using MEM medium), and then scuticociliates were collected and centrifuged with sterilized seawater or artificial seawater (20‰) to replace them with a seawater medium. Each of 100 μl (1×10^5) was dispensed into each well of 96 wells, followed by further culture for 30 minutes. The candidate substances diluted in seawater to have a volume of 100 μl per each concentration were mixed with scuticociliates to have the final volume of 200 μl and cultured for 4 hour.

[5] = in vivo
Protocol: as §1
(§2) The blood chemistry analysis was conducted using Fuji-Dri Chem 4500 (Fuji company, Japan) to measure hemoglobin (Hb), hematocrit (Ht), glucose (GLU), total protein (TP), total cholesterol (TCHO), GOT/GPT and lactic acid (LDH), etc.

[6] = Safety test according to field test: blood chemistry in Wando, Pohang and Jeju farms; details: field application concentration range
Protocol: as §1, §2

scuticociliates [7] = assay: Field test of Mebendazole for exterminating scuticociliates in olive flounder farms; format: in vivo
Description: The pharmaceutical efficacy was investigated after administering Mebendazole once daily for 5˜7 days to the olive flounder which are infected with scuticociliates in three major domestic olive flounder aquaculture area (Jeju, Wando, Pohang). First, the natural scuticociliates infection rate of each olive flounder farm was investigated, and the efficacy was investigated after administering Mebendazole accordingly. [table]

With `COC(=O)Nc1nc2ccc(C(=O)c3ccccc3)cc2[nH]1` [Mebendazole] as the molecule, how does the cumulative mortality rate (scuticociliates [1]; immersion administration 100 ppm for 1 hour) read?
The cumulative mortality rate was “remarkably decreased”.

What about the cumulative mortality rate (scuticociliates [1]; oral administration once, feed with 200 ppm) of the same molecule?
Its cumulative mortality rate is “remarkably decreased”.

What about the “killing of scuticociliates compared with the 19 candidate substances” value (scuticociliates [2]) of the same molecule?
Its value is “effect of killing scuticociliates at the lowest concentration”.

And the “Survival or Death of scuticociliates (activity and shape, microscope)” value (from here on “Survival or Death of scuticociliates”) (scuticociliates [2]; Dosage 10 ppm)?
The value was “Survival”.

And the “Survival or Death of scuticociliates” value (scuticociliates [2]; Dosage 50 ppm)?
The value was “Survival”.

And the “Survival or Death of scuticociliates” value (scuticociliates [2]; Dosage 100 ppm)?
The value was “Death”.

What about the “Survival or Death of scuticociliates” value (scuticociliates [2]; Dosage 200 ppm) of the same molecule?
Its value is “Death”.

What about the “Survival or Death of scuticociliates” value (scuticociliates [2]; Dosage 300 ppm) of the same molecule?
The value was “Death”.

And the “Survival or Death of scuticociliates” value (scuticociliates [2]; Dosage 400 ppm)?
Its value is “Death”.

What about the “Survival or Death of scuticociliates” value (scuticociliates [2]; Dosage 500 ppm) of the same molecule?
Its value is “Death”.

What about the “Survival or Death of scuticociliates” value (scuticociliates [2]; Dosage 600 ppm) of the same molecule?
Its value is “Death”.

What about the “Survival or Death of scuticociliates” value (scuticociliates [2]; Dosage 700 ppm) of the same molecule?
Its value is “Death”.

What about the “Survival or Death of scuticociliates” value (scuticociliates [2]; Dosage 800 ppm) of the same molecule?
The value was “Death”.

What about the “Survival or Death of scuticociliates” value (scuticociliates [2]; Dosage 900 ppm) of the same molecule?
Its value is “Death”.

And the “Survival or Death of scuticociliates” value (scuticociliates [2]; Dosage 1000 ppm)?
The value was “Death”.

What about the “effect on activity of lysozyme in serum, spleen, kidney” value (lysozyme) of the same molecule?
Its value is “does not affect the activity of lysozyme”.

And the “oral dose excreted in the urine” value [3]?
Its value is 10%.

And the “killing of scuticociliates compared with the 19 candidate substances” value (scuticociliates [4])?
The value was “most effectively kills scuticociliates”.

What about the “Survival or Death of scuticociliates” value (scuticociliates [4]; Dosage 10 ppm) of the same molecule?
Its value is “Survival”.

And the “Survival or Death of scuticociliates” value (scuticociliates [4]; Dosage 50 ppm)?
Its value is “Survival”.

And the “Survival or Death of scuticociliates” value (scuticociliates [4]; Dosage 100 ppm)?
Its value is “Death”.

And the “Survival or Death of scuticociliates” value (scuticociliates [4]; Dosage 200 ppm)?
Its value is “Death”.

What about the “Survival or Death of scuticociliates” value (scuticociliates [4]; Dosage 300 ppm) of the same molecule?
The value was “Death”.

And the “Survival or Death of scuticociliates” value (scuticociliates [4]; Dosage 400 ppm)?
Its value is “Death”.

What about the “Survival or Death of scuticociliates” value (scuticociliates [4]; Dosage 500 ppm) of the same molecule?
The value was “Death”.

And the “Survival or Death of scuticociliates” value (scuticociliates [4]; Dosage 600 ppm)?
Its value is “Death”.

What about the “Survival or Death of scuticociliates” value (scuticociliates [4]; Dosage 700 ppm) of the same molecule?
Its value is “Death”.

And the “Survival or Death of scuticociliates” value (scuticociliates [4]; Dosage 800 ppm)?
The value was “Death”.

And the “Survival or Death of scuticociliates” value (scuticociliates [4]; Dosage 900 ppm)?
Its value is “Death”.

And the “Survival or Death of scuticociliates” value (scuticociliates [4]; Dosage 1000 ppm)?
The value was “Death”.

What about the MCHC numerical values [5] of the same molecule?
Its MCHC numerical values is “did not show any significant differences”.

What about the “concentration of Hb in the blood” value [5] of the same molecule?
Its value is “slightly increases”.

And the “liver index (GOT and GPT) of infected fish after administration” value [6]?
The value was “lowered to the normal range”.

What about the “infection of scuticociliates after administration” value (“infection of scuticociliates” for short) (scuticociliates [7]; Juju farm, once daily for 5 days, infection rate before 50%) of the same molecule?
The value was “no infection of scuticociliates was detected”.

What about the “infection of scuticociliates” value (scuticociliates [7]; Pohang farm, once daily for 7 days, infection rate before 70%) of the same molecule?
Its value is “no infection of scuticociliates was detected”.

And the “infection of scuticociliates” value (scuticociliates [7]; Wando farm, once daily for 7 days, infection rate before 70%)?
Its value is “no infection of scuticociliates was detected”.

Which “Survival or Death of scuticociliates” value (scuticociliates [2]; Dosage 10 ppm) does the source give for `O=C(OCc1ccccc1)c1ccccc1` [Benzyl benzonate] here?
The value was “Survival”.

What about the “Survival or Death of scuticociliates” value (scuticociliates [2]; Dosage 50 ppm) of the same molecule?
The value was “Survival”.

What about the “Survival or Death of scuticociliates” value (scuticociliates [2]; Dosage 100 ppm) of the same molecule?
Its value is “Survival”.

What about the “Survival or Death of scuticociliates” value (scuticociliates [2]; Dosage 200 ppm) of the same molecule?
The value was “Survival”.

And the “Survival or Death of scuticociliates” value (scuticociliates [2]; Dosage 500 ppm)?
The value was “Survival”.

And the “Survival or Death of scuticociliates” value (scuticociliates [2]; Dosage 600 ppm)?
Its value is “Survival”.

What about the “Survival or Death of scuticociliates” value (scuticociliates [2]; Dosage 800 ppm) of the same molecule?
The value was “Δ”.

And the “Survival or Death of scuticociliates” value (scuticociliates [2]; Dosage 1000 ppm)?
The value was “Δ”.

What about the “Survival or Death of scuticociliates” value (scuticociliates [4]; Dosage 50 ppm) of the same molecule?
The value was “Survival”.

What about the “Survival or Death of scuticociliates” value (scuticociliates [4]; Dosage 100 ppm) of the same molecule?
The value was “Survival”.

What about the “Survival or Death of scuticociliates” value (scuticociliates [4]; Dosage 500 ppm) of the same molecule?
Its value is “Δ”.

What about the “Survival or Death of scuticociliates” value (scuticociliates [4]; Dosage 600 ppm) of the same molecule?
Its value is “Death”.

What about the “Survival or Death of scuticociliates” value (scuticociliates [4]; Dosage 700 ppm) of the same molecule?
The value was “Death”.

What about the “Survival or Death of scuticociliates” value (scuticociliates [4]; Dosage 800 ppm) of the same molecule?
Its value is “Death”.

With `c1ccc([C@H]2CN3CCSC3=N2)cc1` [Levamisol] as the molecule, how does the “Survival or Death of scuticociliates” value (scuticociliates [2]; Dosage 500 ppm) read?
The value was “Survival”.

What about the “Survival or Death of scuticociliates” value (scuticociliates [2]; Dosage 1000 ppm) of the same molecule?
Its value is “Survival”.

What about the “Survival or Death of scuticociliates” value (scuticociliates [2]; Dosage 1500 ppm) of the same molecule?
The value was “Survival”.

What about the “Survival or Death of scuticociliates” value (scuticociliates [2]; Dosage 2000 ppm) of the same molecule?
Its value is “Survival”.

What about the “Survival or Death of scuticociliates” value (scuticociliates [2]; Dosage 2500 ppm) of the same molecule?
The value was “Survival”.

What about the “Survival or Death of scuticociliates” value (scuticociliates [2]; Dosage 3000 ppm) of the same molecule?
The value was “Survival”.

What about the “Survival or Death of scuticociliates” value (scuticociliates [2]; Dosage 3500 ppm) of the same molecule?
Its value is “Survival”.

What about the “Survival or Death of scuticociliates” value (scuticociliates [2]; Dosage 4000 ppm) of the same molecule?
Its value is “Survival”.

And the “Survival or Death of scuticociliates” value (scuticociliates [4]; Dosage 500 ppm)?
Its value is “Survival”.

What about the “Survival or Death of scuticociliates” value (scuticociliates [4]; Dosage 1000 ppm) of the same molecule?
Its value is “Survival”.

And the “Survival or Death of scuticociliates” value (scuticociliates [4]; Dosage 1500 ppm)?
Its value is “Survival”.

What about the “Survival or Death of scuticociliates” value (scuticociliates [4]; Dosage 2000 ppm) of the same molecule?
The value was “Survival”.

And the “Survival or Death of scuticociliates” value (scuticociliates [4]; Dosage 2500 ppm)?
Its value is “Survival”.

What about the “Survival or Death of scuticociliates” value (scuticociliates [4]; Dosage 3000 ppm) of the same molecule?
Its value is “Survival”.

And the “Survival or Death of scuticociliates” value (scuticociliates [4]; Dosage 3500 ppm)?
Its value is “Survival”.

What about the “Survival or Death of scuticociliates” value (scuticociliates [4]; Dosage 4000 ppm) of the same molecule?
Its value is “Survival”.
